Publication PMC12396409, “Screening and hit evaluation of a microbial metabolite library against the pathogenic Plasmodium falciparum and Toxoplasma gondii parasites” (International Journal for Parasitology: Drugs and Drug …, 2025)
Like-named read-outs stand apart in the source and are kept apart here. Where a SMILES comes first, the peptide text is derived from it. [ ]: non-standard residue; d: D form. Hiv = CC(C)[C@H](O)C(=O)O

Tests used:
[1] = system: P. falciparum 3D7 parasites; assay: P. falciparum growth inhibition assay, 1-cycle (72 h treatment), SYBR DNA staining (library screen at 2 μg/mL and dose-response); format: cell-based, Plasmodium falciparum; conditions: for Pf_72h_%Growth_Rep1 / Pf_72h_%Growth_Rep2 / activity at 2 µg/mL: parasite screen 2 μg/mL, % growth; for IC50: 3D7, 72 h treatment, mean ± S.D., n ≥ 3, read-out: IC50 (μM), P. falciparum; for Screen (P. falciparum): library screen at 2 μg/mL, DD from the 120 h timepoint
[2] = system: P. falciparum 3D7 parasites; assay: P. falciparum growth inhibition assay, 2-cycle (120 h treatment), delayed-death screen and dose-response; format: cell-based, Plasmodium falciparum; conditions: P. falciparum; for Pf_120h_%Growth_Rep1 / Pf_120h_%Growth_Rep2 / activity at 2 µg/mL: parasite screen 2 μg/mL, % growth; for activity at 2 µg/mL: Plasmodium falciparum
[3] = system: T. gondii RH strain (RH-Tub-eYFP) tachyzoites; assay: microbe, parasite or virus in culture; format: cell-based, Toxoplasma gondii; conditions: T. gondii, 72 h; for Tg_72h_%Growth_Rep1 / Tg_72h_%Growth_Rep2 / percent parasite growth at 2 µg/mL: parasite screen 2 μg/mL, % growth; for percent parasite growth at 2 µg/mL: Toxoplasma gondii
[4] = P. falciparum, 72 h, replicate 1
[5] = P. falciparum, 72 h, replicate 2
[6] = replicate 1, read-out: Tg_72h_%Growth_Rep1
[7] = replicate 2, read-out: Tg_72h_%Growth_Rep2
[8] = Plasmodium falciparum, 3D7, 72 h, P. falciparum, 72 h, replicate 1, read-out: Pf_72h_%Growth_Rep1
[9] = Plasmodium falciparum, 3D7, 72 h, P. falciparum, 72 h, replicate 2, read-out: Pf_72h_%Growth_Rep2
[10] = 3D7, 120 h, 120 h, replicate 1, read-out: Pf_120h_%Growth_Rep1
[11] = 3D7, 120 h, 120 h, replicate 2, read-out: Pf_120h_%Growth_Rep2
[12] = 2 μg/mL, values are growth (% of control)

COc1cc(/C=C/C(=O)O)cc(OC)c1O [Sinapic acid]
Mean ([1]; P. falciparum, 72 h, 2 μg/mL, mean of both replicates, growth (% of control)): 45.98
Pf_72h_%Growth_Rep1 [1, 4]: 90.37%
Pf_72h_%Growth_Rep2 [1, 5]: 1.58%
Pf_120h_%Growth_Rep1 ([2]; 120 h, replicate 1): 115.97%
Pf_120h_%Growth_Rep2 ([2]; 120 h, replicate 2): -9.79%
Tg_72h_%Growth_Rep1 ([3]; replicate 1): 101.84%
Tg_72h_%Growth_Rep2 ([3]; replicate 2): 75.80%

C=C(NC(=O)C(=C)NC(=O)c1csc(C2=N[C@@H]3c4csc(n4)[C@H]4NC(=O)c5csc(n5)[C@H]([C@](C)(O)[C@@H](C)O)NC(=O)[C@H]5CSC(=N5)/C(=C/C)NC(=O)[C@H]([C@@H](C)O)NC(=O)c5csc(n5)[C@]3(CC2)NC(=O)[C@H](C)NC(=O)C(=C)NC(=O)C(=C)NC(=O)[C@H](C(C)C)N[C@@H]2C=Cc3c([C@H](C)O)cc(nc3[C@H]2O)C(=O)O[C@@H]4C)n1)C(N)=O [Siomycin A]
Pf_72h_%Growth_Rep1 [1, 4]: 88.11%
Pf_72h_%Growth_Rep2 [1, 5]: 105.15%
Pf_120h_%Growth_Rep1 ([2]; 120 h, replicate 1): 88.55%
Pf_120h_%Growth_Rep2 ([2]; 120 h, replicate 2): 55.07%
Tg_72h_%Growth_Rep1 ([3]; replicate 1): 94.53%
Tg_72h_%Growth_Rep2 ([3]; replicate 2): 80.70%

Cc1cc(O)c2c(c1)C(=O)c1c(c(O)cc(O)c1-c1c(O)cc(O)c3c1C(=O)c1cc(C)cc(O)c1C3=O)C2=O [Skyrin]
activity at 2 µg/mL ([1]; Plasmodium falciparum, 3D7, P. falciparum, 72 h, replicate 1, read-out: Pf_72h_%Growth_Rep1): 80.4%
activity at 2 µg/mL ([1]; Plasmodium falciparum, 3D7, P. falciparum, 72 h, replicate 2, read-out: Pf_72h_%Growth_Rep2): 120%
activity at 2 µg/mL ([2]; 3D7, 120 h, replicate 1, read-out: Pf_120h_%Growth_Rep1): 75.2%
activity at 2 µg/mL ([2]; 3D7, 120 h, replicate 2, read-out: Pf_120h_%Growth_Rep2): 137%
percent parasite growth at 2 µg/mL [3, 6]: 114%
percent parasite growth at 2 µg/mL [3, 7]: 84.9%

CSC[S@+]([O-])C[C@H](CO)NC(=O)/C=C/c1c(C)[nH]c(=O)[nH]c1=O [Sparsomycin]
activity at 2 µg/mL [1, 8]: 4.3%
activity at 2 µg/mL [1, 9]: -1%
activity at 2 µg/mL [2, 10]: 10.1%
activity at 2 µg/mL [2, 11]: -13.2%
percent parasite growth at 2 µg/mL [3, 6]: 2.81%
percent parasite growth at 2 µg/mL [3, 7]: 27.9%

CC[C@H]1CCC[C@H](O)[C@@H](C)C(=O)C2=C[C@@H]3[C@@H](C=C[C@@H]4C[C@@H](O)C[C@@H]34)[C@@H]2CC(=O)O1 [Spinosyn A aglycone]
IC50 [1]: > 1 µM
Pf_72h_%Growth_Rep1 [1, 4]: 91.52%
Pf_72h_%Growth_Rep2 [1, 5]: 38.04%
Screen (P. falciparum) ([1]; 3D7, 72 h): I
Pf_120h_%Growth_Rep1 ([2]; 120 h, replicate 1): 95.52%
Pf_120h_%Growth_Rep2 ([2]; 120 h, replicate 2): 13.75%
Tg_72h_%Growth_Rep1 ([3]; replicate 1): 107.96%
Tg_72h_%Growth_Rep2 ([3]; replicate 2): 78.11%

CC[C@H]1CCC[C@H](O)[C@@H](C)C(=O)C2=C[C@@H]3[C@@H](C=C[C@@H]4C[C@@H](O[C@@H]5O[C@@H](C)[C@H](OC)[C@@H](OC)[C@H]5OC)C[C@@H]34)[C@@H]2CC(=O)O1 [Spinosyn A pseudoaglycone]
IC50 [1]: > 1 µM
Pf_72h_%Growth_Rep1 [1, 4]: 8.11%
Pf_72h_%Growth_Rep2 [1, 5]: -6.27%
Pf_120h_%Growth_Rep1 ([2]; 120 h, replicate 1): 17.26%
Pf_120h_%Growth_Rep2 ([2]; 120 h, replicate 2): 10.80%
Mean ([3]; 2 μg/mL, mean of both replicates, growth (% of control)): 30.09
Replicate 1 [3, 12]: 50.49
Replicate 2 [3, 12]: 9.69
Tg_72h_%Growth_Rep1 ([3]; replicate 1): 50.49%
Tg_72h_%Growth_Rep2 ([3]; replicate 2): 9.69%

CC[C@H]1CCC[C@H](O[C@H]2CC[C@H](N(C)C)[C@@H](C)O2)[C@@H](C)C(=O)C2=C[C@@H]3[C@@H](C=C[C@@H]4C[C@@H](O[C@@H]5O[C@@H](C)[C@H](OC)[C@@H](OC)[C@H]5OC)C[C@@H]34)[C@@H]2CC(=O)O1 [Spinosyn A]
activity at 2 µg/mL [1, 8]: 5.81%
activity at 2 µg/mL [1, 9]: 3.23%
IC50 ([1]; Plasmodium falciparum): > 1 µM
activity at 2 µg/mL [2, 10]: 0.89%
activity at 2 µg/mL [2, 11]: -4.31%
percent parasite growth at 2 µg/mL [3, 6]: 56.8%
percent parasite growth at 2 µg/mL [3, 7]: 95.1%

CC[C@H]1CCC[C@H](O)[C@@H](C)C(=O)C2=C[C@@H]3[C@@H](C=C(C)[C@@H]4C[C@@H](O[C@@H]5O[C@@H](C)[C@H](OC)[C@@H](OC)[C@H]5OC)C[C@@H]34)[C@@H]2CC(=O)O1 [Spinosyn D 17-pseudoaglycone]
Pf_72h_%Growth_Rep1 [1, 4]: 18.47%
Pf_72h_%Growth_Rep2 [1, 5]: 12.37%
Pf_120h_%Growth_Rep1 ([2]; 120 h, replicate 1): 8.86%
Pf_120h_%Growth_Rep2 ([2]; 120 h, replicate 2): 19.25%
Tg_72h_%Growth_Rep1 ([3]; replicate 1): 111.08%
Tg_72h_%Growth_Rep2 ([3]; replicate 2): 100.61%

CC[C@H]1CCC[C@H](O)[C@@H](C)C(=O)C2=C[C@@H]3[C@@H](C=C(C)[C@@H]4C[C@@H](O)C[C@@H]34)[C@@H]2CC(=O)O1 [Spinosyn D aglycone]
IC50 [1]: > 1 µM
Pf_72h_%Growth_Rep1 [1, 4]: 82.67%
Pf_72h_%Growth_Rep2 [1, 5]: 106.85%
Screen (P. falciparum) ([1]; 3D7, 72 h): I
Pf_120h_%Growth_Rep1 ([2]; 120 h, replicate 1): 82.24%
Pf_120h_%Growth_Rep2 ([2]; 120 h, replicate 2): 90.76%
Tg_72h_%Growth_Rep1 ([3]; replicate 1): 115.34%
Tg_72h_%Growth_Rep2 ([3]; replicate 2): 86.84%

CC[C@H]1CCC[C@H](O[C@H]2CC[C@H](N(C)C)[C@@H](C)O2)[C@@H](C)C(=O)C2=C[C@@H]3[C@@H](C=C(C)[C@@H]4C[C@@H](O[C@@H]5O[C@@H](C)[C@H](OC)[C@@H](OC)[C@H]5OC)C[C@@H]34)[C@@H]2CC(=O)O1 [Spinosyn D]
IC50 [1]: > 1 µM
Pf_72h_%Growth_Rep1 [1, 4]: 88.37%
Pf_72h_%Growth_Rep2 [1, 5]: 73.59%
Screen (P. falciparum) ([1]; 3D7, 72 h): I
Pf_120h_%Growth_Rep1 ([2]; 120 h, replicate 1): 102.44%
Pf_120h_%Growth_Rep2 ([2]; 120 h, replicate 2): 14.31%
Tg_72h_%Growth_Rep1 ([3]; replicate 1): 127.19%
Tg_72h_%Growth_Rep2 ([3]; replicate 2): 79.47%

CO[C@@H]1[C@@H](O[C@@H]2O[C@H](C)[C@@H](O[C@H]3C[C@@](C)(O)[C@@H](O)[C@H](C)O3)[C@H](N(C)C)[C@H]2O)[C@@H](CC=O)C[C@@H](C)[C@@H](O[C@H]2CC[C@H](N(C)C)[C@@H](C)O2)/C=C/C=C/C[C@@H](C)OC(=O)C[C@H]1O [Spiramycin I, reference compound]
1) Growth (%) at 72 h ([1]; P. falciparum, 2 μg/mL, 72 h): 71.72%
Pf_72h_%Growth_Rep1 [1, 4]: 60.09%
Pf_72h_%Growth_Rep2 [1, 5]: 83.34%
2) Growth (%) at 120 h ([2]; 2 μg/mL, 120 h): 11.98%
Pf_120h_%Growth_Rep1 ([2]; 120 h, replicate 1): 15.80%
Pf_120h_%Growth_Rep2 ([2]; 120 h, replicate 2): 8.16%
3) Fold change (72 h/120 h) ([2]; growth at 72 h / growth at 120 h, 2 μg/mL): 6.0
Tg_72h_%Growth_Rep1 ([3]; replicate 1): 20.85%
Tg_72h_%Growth_Rep2 ([3]; replicate 2): 24.90%

CC1=C[C@]2(C)/C=C(C)/C=C/C[C@@H](O)/C=C3C=C/C(=C4\C(=O)O[C@]2(C[C@@H]1C)C4=O)OC/3 [Spirohexenolide A]
Pf_72h_%Growth_Rep1 [1, 4]: 8.85%
Pf_72h_%Growth_Rep2 [1, 5]: 0.46%
Pf_120h_%Growth_Rep1 ([2]; 120 h, replicate 1): 19.42%
Pf_120h_%Growth_Rep2 ([2]; 120 h, replicate 2): -9.19%
Tg_72h_%Growth_Rep1 ([3]; replicate 1): 115.19%
Tg_72h_%Growth_Rep2 ([3]; replicate 2): 70.63%

CC(C)C[C@@H]1NC(=O)[C@H](C(C)C)NC(=O)[C@H](C(C)C)OC(=O)[C@@H](CC(C)C)NC(=O)[C@@H](C(C)C)NC(=O)[C@H](C(C)C)OC1=O [Sporidesmolide III] (cyclo([Hiv]VL[Hiv][dV][dL]))
Pf_72h_%Growth_Rep1 [1, 4]: 74.67%
Pf_72h_%Growth_Rep2 [1, 5]: 81.35%
Pf_120h_%Growth_Rep1 ([2]; 120 h, replicate 1): 153.85%
Pf_120h_%Growth_Rep2 ([2]; 120 h, replicate 2): 76.17%
Tg_72h_%Growth_Rep1 ([3]; replicate 1): 94.68%
Tg_72h_%Growth_Rep2 ([3]; replicate 2): 93.28%
